Results on nine molecules are retold here after ChEMBL document CHEMBL1201862, “PubChem BioAssay data set” (2004).

Each structure is given as a SMILES string.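 How tested: cells in 96-well plates exposed to compound for 48 hours at five concentrations. The concentration for 50% growth inhibition is given as GI50.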 Active and inactive are the calls of the source. No stated cut-off is given here; in the data, active = GI50 up to about 1.1 µM and inactive = higher. A value given as a limit tells only on which side of the number the result lay.

Common to all, as to test: NCI-60 cell line screen, 48 h
The subject of test [1] is SF-295.
The subject of test [2] is EKVX.
In test [3] the test system is SK-MEL-2.
The subject of test [4] is HT-29.
Test [5] has as its system CCRF-CEM.
Test [6] has as its system CAKI-1.
For test [7], the system named is RXF 393.
In test [8] the test system is SNB-19.
Test [9] has as its system SK-OV-3.
Test [10] has as its system M14.
The subject of test [11] is OVCAR-4.
The subject of test [12] is HL-60.
Test [13] relates to SN12C.
Test [14] relates to NCI-H226.
For test [15], the system named is UACC-62.
The subject of test [16] is SF-539.
The subject of test [17] is SK-MEL-28.
Test [18] relates to HCC 2998.

As to `CCCCCCCCCCCCC(=O)CCCCC(=O)O`, the GI50 in test [1] was 23.4 µM (inactive); in test [2] it was 33.3 µM (inactive); in [3], 20.7 µM (inactive); in test [4], 15.8 µM (inactive); in test [5] it was 33.7 µM (inactive); in [6] it was 32.5 µM (inactive). In addition, the GI50 was 34.9 µM (inactive) in test [7]; 54.7 µM (inactive) in [8]; 68.2 µM (inactive) in [9]; 17.5 µM (inactive) in test [10]; 58.5 µM (inactive) in test [11]; 13.5 µM (inactive) in [12]. Also, the GI50 in test [13] is 24 µM (inactive); in [14], 22.9 µM (inactive); in test [15] it was 17.9 µM (inactive); in test [16] it was 17.5 µM (inactive); in [17] it was 20.7 µM (inactive).
In the case of `O=c1c2cccnc2ncn1CCCN1CCCCC1`, the GI50 in [1], in test [2], in test [3], in [4], in test [5] and in test [6] was > 100 µM (inactive) each time. For the same molecule, the GI50 in [7], in test [8], in [9], in [10], in test [11] and in test [13] was > 100 µM (inactive) each time. Further, the GI50 in test [14], in test [15], in test [16] and in test [17] was > 100 µM (inactive) in each case.
In the case of `CC(=O)N(CCN)CCN`, the GI50 in test [1] was > 10 µM (inactive); in test [2], > 100 µM (inactive); in test [3] it was > 100 µM (inactive); in test [5], > 10 µM (inactive); in test [6], > 10 µM (inactive); in test [7], > 10 µM (inactive). For the same molecule, the GI50 is > 10 µM (inactive) in test [8]; > 100 µM (inactive) in [9]; > 10 µM (inactive) in [10]; > 10 µM (inactive) in test [11]; > 10 µM (inactive) in test [18]; > 10 µM (inactive) in test [12]. Further, the GI50 in [13] was > 10 µM (inactive); in [15] it was > 100 µM (inactive); in test [17] it was > 10 µM (inactive).
With `OC(Cn1cncn1)(Cn1cncn1)c1ccc(Cl)cc1Cl`, the GI50 in test [1], in test [3], in test [4], in test [5], in test [6] and in [7] was > 100 µM (inactive) in each case. Also, the GI50 in test [9], in test [10], in test [11], in test [12], in test [13] and in test [14] was > 100 µM (inactive) throughout. Also, the GI50 in test [15], in [16] and in [17] was > 100 µM (inactive) each time.
Take `O=C(NC(Cc1ccccc1)C(=O)CCl)OCc1ccccc1` (centres undefined): the GI50 in test [1] is 14.1 µM (inactive); in [3], 10.3 µM (inactive); in [4], 16.6 µM (inactive); in test [5], 2.74 µM (inactive); in test [6], 5.15 µM (inactive); in [8] it was 12.3 µM (inactive). Also, the GI50 is 14.4 µM (inactive) in [9]; 10.6 µM (inactive) in [10]; 18.1 µM (inactive) in test [18]; 3.07 µM (inactive) in test [12]; 4.91 µM (inactive) in [13]; 9.2 µM (inactive) in [15]. For the same molecule, the GI50 in test [16] is 4.76 µM (inactive); in test [17], 12.1 µM (inactive).
Take `CC1=C(Cl)C=CP(=O)(OC(C)C)C1` (centres undefined): the GI50 was > 100 µM (inactive) in [1]; > 100 µM (inactive) in test [2]; > 100 µM (inactive) in test [3]; > 100 µM (inactive) in test [4]; 37.5 µM (inactive) in [5]; > 100 µM (inactive) in test [7]. Besides, the GI50 was 61.7 µM (inactive) in test [10]; > 100 µM (inactive) in [11]; > 100 µM (inactive) in test [18]; 52 µM (inactive) in [12]; > 100 µM (inactive) in test [13]; > 100 µM (inactive) in test [15]. Also, the GI50 in [16] and in [17] was > 100 µM (inactive) each time.
For `c1ccc(-c2ccnc3c2ccc2c(-c4ccccc4)ccnc23)cc1`, the GI50 in [2] is 0.664 µM (active); in test [3] it was 3.37 µM (inactive); in test [4], 1.18 µM (inactive); in [5] it was 0.465 µM (active); in [7], 1.83 µM (inactive); in test [8], 1.19 µM (inactive). Besides, the GI50 in test [9] was 2.65 µM (inactive); in test [10], 3.37 µM (inactive); in test [11], 2.28 µM (inactive); in [12] it was 0.809 µM (active); in test [13] it was 2.26 µM (inactive); in [14], 1.65 µM (inactive). Further, the GI50 is 0.418 µM (active) in test [15], 2.06 µM (inactive) in test [16] and 4.57 µM (inactive) in test [17].
On to `CN1CCCC2(CCCc3ccccc32)C1` (centres undefined), for which the GI50 in test [1], in [2], in test [3], in [4], in test [5] and in test [6] was > 100 µM (inactive) throughout. Besides, the GI50 in test [9], in test [10], in test [11], in [18], in test [12] and in [13] was > 100 µM (inactive) each time. The GI50 in test [14], in test [15], in [16] and in [17] was > 100 µM (inactive) in each case.
For the molecule `CNS(=O)(=O)NN(C)S(=O)(=O)c1ccc(C)cc1`, the GI50 in test [1], in [2], in [3], in [4], in test [5] and in [6] was > 100 µM (inactive) in each case. The GI50 in test [7], in test [8], in test [9], in test [10], in test [11] and in [18] was > 100 µM (inactive) in each case. Moreover, the GI50 in [12], in test [13], in test [15], in test [16] and in test [17] was > 100 µM (inactive) throughout.
